Results from ChEMBL document CHEMBL5321194 (J Med Chem, 2023).
≈ marks a conversion by molar mass, not a printed value.

Columns and labels:
Focal adhesion kinase 1 = Focal adhesion kinase 1 (Homo sapiens, UniProt Q05397)
Description: Inhibition of N-terminal NanoLuc-tagged full length FAK (unknown origin) transfected in HEK293T cells pre-incubated with compound for 2 hrs followed by Nano-Glo substrate addition by NanoBRET analysis

SRSF protein kinase 2 [1] = target: T1, SRSF protein kinase 2 (Homo sapiens, UniProt P78362)
Target sequence in this assay (P78362 whole entry): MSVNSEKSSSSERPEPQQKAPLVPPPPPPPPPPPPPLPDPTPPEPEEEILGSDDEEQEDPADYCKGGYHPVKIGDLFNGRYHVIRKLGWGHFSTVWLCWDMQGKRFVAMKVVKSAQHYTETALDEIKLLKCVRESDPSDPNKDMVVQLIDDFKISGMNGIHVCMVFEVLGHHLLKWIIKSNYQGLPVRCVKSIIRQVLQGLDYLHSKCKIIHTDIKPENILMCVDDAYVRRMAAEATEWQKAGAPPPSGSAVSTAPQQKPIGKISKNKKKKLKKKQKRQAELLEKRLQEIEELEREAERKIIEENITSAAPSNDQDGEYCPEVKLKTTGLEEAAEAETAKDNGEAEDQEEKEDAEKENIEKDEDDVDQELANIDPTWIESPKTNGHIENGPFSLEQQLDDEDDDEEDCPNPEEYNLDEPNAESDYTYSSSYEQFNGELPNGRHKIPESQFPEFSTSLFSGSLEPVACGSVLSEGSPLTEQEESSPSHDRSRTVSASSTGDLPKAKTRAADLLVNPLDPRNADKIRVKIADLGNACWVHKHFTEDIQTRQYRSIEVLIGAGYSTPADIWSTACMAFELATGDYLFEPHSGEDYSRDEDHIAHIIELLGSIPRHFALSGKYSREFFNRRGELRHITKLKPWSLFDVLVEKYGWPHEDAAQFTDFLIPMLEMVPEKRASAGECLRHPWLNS
Description: Inhibition of N-terminal nLuc-fused SRPK2 (unknown origin) transfected in lysed HEK293T cells by NanoBRET assay

[2] = target: T2, Dual specificity tyrosine-phosphorylation-regulated kinase 2 (Homo sapiens, UniProt Q92630)
T2 sequence (Q92630 whole entry): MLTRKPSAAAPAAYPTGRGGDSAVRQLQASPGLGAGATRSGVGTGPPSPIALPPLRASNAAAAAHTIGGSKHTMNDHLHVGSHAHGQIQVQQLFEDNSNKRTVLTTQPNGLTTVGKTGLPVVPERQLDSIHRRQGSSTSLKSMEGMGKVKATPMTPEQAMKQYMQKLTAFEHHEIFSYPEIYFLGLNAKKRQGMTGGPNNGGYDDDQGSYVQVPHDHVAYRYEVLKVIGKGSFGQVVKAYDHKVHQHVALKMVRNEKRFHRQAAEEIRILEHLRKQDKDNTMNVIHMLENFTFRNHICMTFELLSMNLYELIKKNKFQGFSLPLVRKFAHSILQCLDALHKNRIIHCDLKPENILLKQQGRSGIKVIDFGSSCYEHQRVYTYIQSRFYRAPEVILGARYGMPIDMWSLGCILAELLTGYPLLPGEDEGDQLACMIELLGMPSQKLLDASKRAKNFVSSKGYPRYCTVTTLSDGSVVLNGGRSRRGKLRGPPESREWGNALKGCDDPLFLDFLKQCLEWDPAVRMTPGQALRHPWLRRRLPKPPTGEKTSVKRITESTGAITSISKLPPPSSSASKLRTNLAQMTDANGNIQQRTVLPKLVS

[3] = target: Dual specificity protein kinase CLK3 (Homo sapiens, UniProt P49761); test: Inhibition of human CLK3 using myelin basic protein as substrate in presence of [gamma-33p]-ATP by radiometric hotspot kinase
[4] = target: T3, Dual specificity tyrosine-phosphorylation-regulated kinase 3 (Homo sapiens, UniProt O43781)
T3 sequence (O43781 whole entry): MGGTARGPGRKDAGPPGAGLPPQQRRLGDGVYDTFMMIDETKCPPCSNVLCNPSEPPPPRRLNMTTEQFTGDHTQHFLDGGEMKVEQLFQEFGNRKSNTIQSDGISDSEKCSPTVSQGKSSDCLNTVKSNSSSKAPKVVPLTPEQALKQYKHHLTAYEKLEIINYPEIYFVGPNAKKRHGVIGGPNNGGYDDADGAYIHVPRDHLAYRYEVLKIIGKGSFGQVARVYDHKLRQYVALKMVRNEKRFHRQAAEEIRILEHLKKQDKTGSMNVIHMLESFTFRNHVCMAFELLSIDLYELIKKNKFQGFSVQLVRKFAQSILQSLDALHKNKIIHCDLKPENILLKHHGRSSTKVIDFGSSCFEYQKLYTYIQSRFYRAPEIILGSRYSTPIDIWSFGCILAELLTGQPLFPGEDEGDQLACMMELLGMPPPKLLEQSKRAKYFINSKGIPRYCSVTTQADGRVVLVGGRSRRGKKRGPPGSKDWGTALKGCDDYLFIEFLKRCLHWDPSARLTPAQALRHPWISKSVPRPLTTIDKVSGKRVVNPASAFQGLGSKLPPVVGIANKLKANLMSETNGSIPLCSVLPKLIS

SRSF protein kinase 3 [5] = target: T4, SRSF protein kinase 3 (Homo sapiens, UniProt Q9UPE1)
Description: Inhibition of N-terminal nLuc-fused SRPK3 (unknown origin) transfected in intact HEK293T cells by NanoBRET assay

[6] = target: Dual specificity protein kinase CLK1 (Homo sapiens, UniProt P49759); test: Inhibition of human CLK1 using myelin basic protein as substrate in presence of [gamma-33p]-ATP by radiometric hotspot kinase
SRSF protein kinase 1 [7] = target: T5, SRSF protein kinase 1 (Homo sapiens, UniProt Q96SB4)
[8] = target: Dual specificity tyrosine-phosphorylation-regulated kinase 1B (Homo sapiens, UniProt Q9Y463)
[9] = target: Dual specificity tyrosine-phosphorylation-regulated kinase 1A (Homo sapiens, UniProt Q13627)
SRSF protein kinase 1 [10] = target: T5, SRSF protein kinase 1; test: Inhibition of C-terminal nLuc-fused SRPK1 (unknown origin) transfected in intact HEK293T cells by NanoBRET assay
SRSF protein kinase 3 [11] = target: T4, SRSF protein kinase 3; remark: listed apart in the source
[12] = target: Dual specificity protein kinase CLK4 (Homo sapiens, UniProt Q9HAZ1); test: Inhibition of human CLK4 using myelin basic protein as substrate in presence of [gamma-33p]-ATP by radiometric hotspot kinase
[13] = target: Dual specificity protein kinase CLK2 (Homo sapiens, UniProt P49760); test: Inhibition of human CLK2 using myelin basic protein as substrate in presence of [gamma-33p]-ATP by radiometric hotspot kinase
SRSF protein kinase 2 [14] = target: T1, SRSF protein kinase 2; remark: listed apart in the source
Target sequence in this assay (P78362 whole entry): as the sequence (P78362 whole entry) above

physchem = conditions: phosphate buffer, pH 7.4
[15] = Metabolic stability in human liver microsomes assessed as intrinsic clearance
[16] = Clearance in human hepatocytes measured per million of cells
[17] = Thermodynamic solubility of the compound in phosphate buffer at pH 7.4
[18] = Apparent permeability in human Caco-2 cells
[19] = Clearance in mouse hepatocytes measured per million of cells
[20] = Efflux ratio of apparent permeability in human Caco-2 cells
[21] = Metabolic stability in mouse liver microsomes assessed as intrinsic clearance
SRSF protein kinase 2 [22] = target: T1, SRSF protein kinase 2; conditions: time 10.0 min
Target sequence in this assay (P78362 whole entry, looked up): as the sequence (P78362 whole entry) above

SRSF protein kinase 1 [23] = target: T5, SRSF protein kinase 1; conditions: time 10.0 min
SRSF protein kinase 3 [24] = target: T4, SRSF protein kinase 3; conditions: time 10.0 min

T5 sequence (Q96SB4 whole entry): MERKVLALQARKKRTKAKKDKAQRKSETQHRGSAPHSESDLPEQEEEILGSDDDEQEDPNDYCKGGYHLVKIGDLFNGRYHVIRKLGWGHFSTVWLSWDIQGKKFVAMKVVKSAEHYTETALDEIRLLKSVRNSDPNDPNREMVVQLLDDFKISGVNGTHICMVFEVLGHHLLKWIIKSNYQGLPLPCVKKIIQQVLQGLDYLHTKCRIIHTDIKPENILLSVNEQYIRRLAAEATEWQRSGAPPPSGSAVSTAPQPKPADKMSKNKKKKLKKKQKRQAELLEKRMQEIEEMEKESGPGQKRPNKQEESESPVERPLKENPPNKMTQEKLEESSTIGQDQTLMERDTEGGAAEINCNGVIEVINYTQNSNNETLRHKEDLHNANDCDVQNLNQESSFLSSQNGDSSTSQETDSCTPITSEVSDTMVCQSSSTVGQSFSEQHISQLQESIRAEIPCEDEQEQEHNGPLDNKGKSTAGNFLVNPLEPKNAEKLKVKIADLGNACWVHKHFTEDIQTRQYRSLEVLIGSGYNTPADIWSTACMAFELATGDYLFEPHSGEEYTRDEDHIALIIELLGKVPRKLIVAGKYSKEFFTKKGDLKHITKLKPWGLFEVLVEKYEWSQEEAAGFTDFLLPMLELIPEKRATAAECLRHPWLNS
Chain of Dual specificity protein kinase CLK2 (P49760 whole entry): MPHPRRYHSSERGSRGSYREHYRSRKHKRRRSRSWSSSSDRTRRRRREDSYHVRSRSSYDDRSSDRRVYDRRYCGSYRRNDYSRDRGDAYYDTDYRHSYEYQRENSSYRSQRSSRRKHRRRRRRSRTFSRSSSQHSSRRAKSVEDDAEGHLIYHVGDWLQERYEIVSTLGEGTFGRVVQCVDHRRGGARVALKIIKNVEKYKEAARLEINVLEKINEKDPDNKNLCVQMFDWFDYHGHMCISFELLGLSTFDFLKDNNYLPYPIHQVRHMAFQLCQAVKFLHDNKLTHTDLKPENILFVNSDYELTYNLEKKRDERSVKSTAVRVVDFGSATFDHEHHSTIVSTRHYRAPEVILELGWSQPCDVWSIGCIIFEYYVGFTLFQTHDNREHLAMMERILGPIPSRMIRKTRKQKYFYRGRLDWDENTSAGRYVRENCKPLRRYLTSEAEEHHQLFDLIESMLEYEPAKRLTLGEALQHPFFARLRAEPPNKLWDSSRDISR
T4 sequence (Q9UPE1 whole entry): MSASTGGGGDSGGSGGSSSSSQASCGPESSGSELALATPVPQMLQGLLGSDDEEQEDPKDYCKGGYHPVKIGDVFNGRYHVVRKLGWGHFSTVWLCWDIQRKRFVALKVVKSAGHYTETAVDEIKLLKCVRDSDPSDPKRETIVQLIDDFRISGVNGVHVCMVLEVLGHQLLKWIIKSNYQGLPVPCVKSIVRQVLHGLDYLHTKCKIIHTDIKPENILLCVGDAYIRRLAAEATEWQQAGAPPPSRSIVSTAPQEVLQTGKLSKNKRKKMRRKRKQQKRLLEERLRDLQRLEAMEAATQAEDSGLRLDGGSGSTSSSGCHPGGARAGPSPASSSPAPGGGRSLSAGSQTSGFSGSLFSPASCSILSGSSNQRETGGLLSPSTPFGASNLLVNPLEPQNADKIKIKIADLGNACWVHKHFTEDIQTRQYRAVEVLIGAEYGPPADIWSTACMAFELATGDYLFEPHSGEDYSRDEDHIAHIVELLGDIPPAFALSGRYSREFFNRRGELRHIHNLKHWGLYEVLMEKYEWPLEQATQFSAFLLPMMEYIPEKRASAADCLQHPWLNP
Chain of Dual specificity tyrosine-phosphorylation-regulated kinase 1B (Q9Y463 whole entry): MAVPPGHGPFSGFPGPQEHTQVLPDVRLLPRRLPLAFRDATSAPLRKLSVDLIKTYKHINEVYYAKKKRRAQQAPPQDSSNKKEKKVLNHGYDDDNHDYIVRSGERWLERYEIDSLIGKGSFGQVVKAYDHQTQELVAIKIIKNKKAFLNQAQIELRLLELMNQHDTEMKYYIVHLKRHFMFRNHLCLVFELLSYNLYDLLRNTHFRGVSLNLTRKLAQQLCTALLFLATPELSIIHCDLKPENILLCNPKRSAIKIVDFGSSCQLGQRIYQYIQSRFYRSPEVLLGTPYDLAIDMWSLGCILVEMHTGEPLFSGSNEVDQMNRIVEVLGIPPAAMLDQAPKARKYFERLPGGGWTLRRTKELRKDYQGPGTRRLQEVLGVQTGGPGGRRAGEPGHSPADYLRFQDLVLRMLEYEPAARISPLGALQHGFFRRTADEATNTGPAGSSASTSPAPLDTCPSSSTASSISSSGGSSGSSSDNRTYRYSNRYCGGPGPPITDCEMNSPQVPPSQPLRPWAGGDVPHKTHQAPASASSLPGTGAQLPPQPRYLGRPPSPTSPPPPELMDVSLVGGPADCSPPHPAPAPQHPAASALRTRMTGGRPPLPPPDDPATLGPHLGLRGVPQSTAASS
Chain of Dual specificity protein kinase CLK3 (P49761 whole entry): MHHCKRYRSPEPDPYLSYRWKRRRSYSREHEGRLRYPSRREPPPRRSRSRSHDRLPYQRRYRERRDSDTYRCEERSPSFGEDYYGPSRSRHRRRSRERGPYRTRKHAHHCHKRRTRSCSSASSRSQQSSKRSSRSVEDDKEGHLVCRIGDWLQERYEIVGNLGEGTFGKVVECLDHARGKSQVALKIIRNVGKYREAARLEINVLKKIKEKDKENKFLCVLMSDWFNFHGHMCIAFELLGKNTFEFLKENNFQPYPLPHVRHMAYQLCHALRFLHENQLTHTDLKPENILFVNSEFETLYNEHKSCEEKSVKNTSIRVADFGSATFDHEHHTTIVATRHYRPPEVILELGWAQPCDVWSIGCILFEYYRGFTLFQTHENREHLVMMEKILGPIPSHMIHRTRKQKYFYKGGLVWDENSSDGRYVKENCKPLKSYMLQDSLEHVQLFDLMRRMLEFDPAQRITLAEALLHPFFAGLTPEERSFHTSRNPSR
Chain of Dual specificity protein kinase CLK4 (Q9HAZ1 whole entry): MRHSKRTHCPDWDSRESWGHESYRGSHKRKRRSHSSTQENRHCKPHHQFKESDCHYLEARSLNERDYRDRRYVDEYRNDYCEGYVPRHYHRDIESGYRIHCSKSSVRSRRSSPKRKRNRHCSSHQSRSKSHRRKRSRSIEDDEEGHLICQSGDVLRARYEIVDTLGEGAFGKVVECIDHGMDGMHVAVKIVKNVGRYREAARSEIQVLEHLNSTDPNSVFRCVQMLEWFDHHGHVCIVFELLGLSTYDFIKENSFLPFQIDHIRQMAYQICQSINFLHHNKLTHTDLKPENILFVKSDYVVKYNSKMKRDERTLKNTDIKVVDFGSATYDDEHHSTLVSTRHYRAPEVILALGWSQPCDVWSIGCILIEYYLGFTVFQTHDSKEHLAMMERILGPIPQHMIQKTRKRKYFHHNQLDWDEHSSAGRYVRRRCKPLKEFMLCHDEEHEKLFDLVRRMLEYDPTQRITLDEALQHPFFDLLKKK
Chain of Dual specificity protein kinase CLK1 (P49759 whole entry): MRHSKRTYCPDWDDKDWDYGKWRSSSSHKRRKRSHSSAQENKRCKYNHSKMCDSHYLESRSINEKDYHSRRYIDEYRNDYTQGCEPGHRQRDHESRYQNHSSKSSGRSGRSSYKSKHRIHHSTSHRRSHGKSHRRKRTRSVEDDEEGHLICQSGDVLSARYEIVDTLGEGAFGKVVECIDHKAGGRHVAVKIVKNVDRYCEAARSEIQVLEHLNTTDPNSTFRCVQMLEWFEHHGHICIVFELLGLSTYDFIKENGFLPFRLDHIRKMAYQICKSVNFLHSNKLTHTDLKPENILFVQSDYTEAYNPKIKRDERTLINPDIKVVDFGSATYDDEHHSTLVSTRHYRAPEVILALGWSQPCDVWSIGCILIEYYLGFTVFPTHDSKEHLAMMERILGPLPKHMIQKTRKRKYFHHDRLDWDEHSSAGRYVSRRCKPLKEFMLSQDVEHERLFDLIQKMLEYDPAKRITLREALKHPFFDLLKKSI

Compound | IC50 [2] | IC50 [3] | IC50 [4] | IC50 [6] | IC50 (SRSF protein kinase 1 [7]) | IC50 [8] | IC50 [9] | IC50 (SRSF protein kinase 3 [11]) | IC50 [12] | IC50 [13] | IC50 (SRSF protein kinase 2 [14]) | also measured
c1ccc(-c2nc3ccccc3[nH]2)nc1 | – | – | – | – | – | – | – | – | – | – | – | EC50 (Focal adhesion kinase 1): 103000 nM
c1ccc(-c2nn[nH]n2)nc1 | – | – | – | – | – | – | – | – | – | – | – | EC50 (Focal adhesion kinase 1): 253000 nM
CN(c1ncccc1CNc1ccnc(-c2nc3c(F)c(Cl)ccc3[nH]2)n1)S(C)(=O)=O | > 10000 nM | > 10000 nM | > 10000 nM | > 10000 nM | – | > 10000 nM | > 10000 nM | – | > 10000 nM | > 10000 nM | – | solubility kinetic at 2 h (physchem): < 2 µM; CLint [15]: 504 µL/min/mg; hepatocyte CLint [16]: 51 µL/min/1e6 cells; solubility thermodynamic [17]: < 1 µg/mL; Papp [18]: 7.2 ×10⁻⁶ cm/s; ΔTm (SRSF protein kinase 2 [22]): 4 °C; ΔTm (SRSF protein kinase 1 [23]): 9.1 °C; ΔTm (SRSF protein kinase 3 [24]): 9.6 °C; hepatocyte CLint [19]: 354 µL/min/1e6 cells; CLint [21]: 196 µL/min/mg
CCc1cc2c(cc1-c1cccc(S(=O)(=O)F)c1)C(C)(C)c1[nH]c3cc(C#N)ccc3c1C2=O | 5720 nM | > 30000 nM | 6780 nM | – | 1.68 nM | 293 nM | 225 nM | 4.81 nM | 159 nM | 920 nM | 2.54 nM | –

Continued, in another order:

IC50 [2] | IC50 [3] | IC50 [4] | IC50 [6] | IC50 (SRSF protein kinase 1 [7]) | IC50 [8] | IC50 [9] | IC50 (SRSF protein kinase 3 [11]) | IC50 [12] | IC50 [13] | IC50 (SRSF protein kinase 2 [14]) | Compound | also measured
> 10000 nM | > 10000 nM | > 10000 nM | > 10000 nM | 83 nM | > 10000 nM | > 10000 nM | 27 nM | > 10000 nM | > 10000 nM | 1510 nM | O=C(Nc1cc(C(F)(F)F)ccc1N1CCCCC1)c1ccncc1 | EC50 (SRSF protein kinase 2 [1]): 2560 nM; EC50 (SRSF protein kinase 3 [5]): 398 nM; EC50 (SRSF protein kinase 1 [10]): 2360 nM
> 10000 nM | > 10000 nM | > 10000 nM | 839 nM | – | 1840 nM | 1580 nM | 166 nM | 266 nM | 5700 nM | 256 nM | O=C(Nc1cc(C(F)(F)F)ccc1N1CCN(Cc2ccccn2)CC1)c1ccc(-c2ccncc2)o1 | EC50 (SRSF protein kinase 2 [1]): 648 nM; EC50 (SRSF protein kinase 3 [5]): 6150 nM
– | – | – | – | > 10000 nM | – | – | – | – | – | > 10000 nM | CN(c1ncccc1CNc1ccnc(-c2cc3cc(Cl)ccc3[nH]2)n1)S(C)(=O)=O | solubility kinetic at 2 h (physchem): 2.3 µM (≈ 1.02 µg/mL); CLint [15]: 771 µL/min/mg; hepatocyte CLint [16]: 156 µL/min/1e6 cells; solubility thermodynamic [17]: < 1 µg/mL; Papp [18]: 2 ×10⁻⁶ cm/s; hepatocyte CLint [19]: 1100 µL/min/1e6 cells; efflux ratio [20]: 1.6; CLint [21]: 784 µL/min/mg
